Literature values as cited in patent US20050202566A1, “Device and method for determining parameters” (priority 2002, published 2005).

Tested on: thrombus formation
Conditions: ex vivo flow models using whole blood; with increasing shear

Structure (SMILES)	inhibition of thrombus formation as a function of shear
O=C(O)COc1ccc(CCNS(=O)(=O)c2ccccc2)s1 [Linotroban]	increasingly inhibit thrombus formation
CC(=O)Oc1ccccc1C(=O)O [aspirin]	increasingly inhibit thrombus formation
